{
  "source": "paper PMC10922308",
  "about": "(Cell chemical biology, 2023)",
  "type_in_all_cases": "cell-based",
  "key": {"PIM1 [1]": {"biological_target": "T1, PIM1 (Homo sapiens, UniProt P11309)", "T1 sequence (P11309 whole entry)": "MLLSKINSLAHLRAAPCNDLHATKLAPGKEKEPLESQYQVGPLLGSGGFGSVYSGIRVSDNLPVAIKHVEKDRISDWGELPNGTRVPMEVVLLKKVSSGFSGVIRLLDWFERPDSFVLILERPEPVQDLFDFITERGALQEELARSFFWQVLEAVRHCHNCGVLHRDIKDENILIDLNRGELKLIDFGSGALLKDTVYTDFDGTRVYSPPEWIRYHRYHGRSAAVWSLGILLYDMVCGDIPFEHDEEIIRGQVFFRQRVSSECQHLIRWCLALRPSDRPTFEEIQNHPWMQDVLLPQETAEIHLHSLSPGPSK", "T1 sequence (P40337 whole entry partner)": "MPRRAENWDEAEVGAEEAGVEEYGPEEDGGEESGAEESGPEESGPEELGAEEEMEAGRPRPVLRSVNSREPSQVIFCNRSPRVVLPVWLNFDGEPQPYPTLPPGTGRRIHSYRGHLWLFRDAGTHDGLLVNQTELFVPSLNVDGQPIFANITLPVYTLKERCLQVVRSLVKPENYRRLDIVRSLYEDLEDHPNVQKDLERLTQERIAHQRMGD", "assay": "PROTAC degradation immunoblot in PC3-dox-PIM1 cells"}, "PIM1 [2]": {"biological_target": "T1, PIM1"}, "PIM1 [3]": {"biological_target": "T1, PIM1", "assay": "PROTAC degradation immunoblot in PC3-dox-PIM1 cells", "remark": "listed apart in the source"}, "PIM2": {"biological_target": "PIM2 (Homo sapiens, UniProt Q9P1W9)", "sequence (Q9P1W9 whole entry)": "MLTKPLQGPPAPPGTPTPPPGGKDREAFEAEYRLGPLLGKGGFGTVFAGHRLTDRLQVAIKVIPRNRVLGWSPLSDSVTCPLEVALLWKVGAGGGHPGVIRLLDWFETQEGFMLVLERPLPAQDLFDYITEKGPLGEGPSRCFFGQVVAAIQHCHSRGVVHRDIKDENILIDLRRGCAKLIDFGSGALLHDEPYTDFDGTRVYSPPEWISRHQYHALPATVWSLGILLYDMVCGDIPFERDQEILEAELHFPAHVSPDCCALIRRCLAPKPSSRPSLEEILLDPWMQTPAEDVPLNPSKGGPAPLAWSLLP", "sequence (P40337 whole entry partner)": "as the sequence (P40337 whole entry partner) above", "assay": "PROTAC degradation immunoblot in PC3 cells"}, "PIM3": {"biological_target": "PIM3 (Homo sapiens, UniProt Q86V86)", "sequence (P40337 whole entry partner)": "as the sequence (P40337 whole entry partner) above", "assay": "PROTAC degradation immunoblot in PC3 cells"}},
  "data": [
    {"smiles": "Cc1ncsc1-c1ccc([C@H](C)NC(=O)[C@@H]2C[C@@H](O)CN2C(=O)[C@@H](NC(=O)CCCCCCC(=O)N[C@H]2CCCN(c3c(/C=C4\\SC(=O)NC4=O)cccc3-c3ccccc3)C2)C(C)(C)C)cc1", "note": "[AZD1208-VHL-01, N^1-((S)-1-(3-((Z)-(2,4-dioxothiazolidin-5-ylidene)methyl)-[1,1’-biphenyl]-2-yl)piperidin-3-yl)-N^8-((S)-1-((2S,4R)-4-hydroxy-2-(((S)-1-(4-(4-methylthiazol-5-yl)phenyl)ethyl)carbamoyl)pyrrolidin-1-yl)-3,3-dimethyl-1-oxobutan-2-yl)octanediamide]", "values": [
      {"measurement": "PROTAC degradation immunoblot in PC3-dox-PIM1 cells", "setting": "PIM1 [1]", "value": 6.25, "unit": "µM"}
    ]},
    {"smiles": "Cc1ncsc1-c1ccc([C@H](C)NC(=O)[C@@H]2C[C@@H](O)CN2C(=O)[C@@H](NC(=O)CCCCCCC(=O)N[C@@H]2CC(c3ccncc3NC(=O)c3ccc(F)c(-c4c(F)cccc4F)n3)C[C@H](C)C2)C(C)(C)C)cc1", "note": "(stereo partly drawn) [PIM447-VHL-01, N^1-((1S,5S)-3-(3-(6-(2,6-difluorophenyl)-5-fluoropicolinamido)pyridin-4-yl)-5-methylcyclohexyl)-N^8-((S)-1-((2S,4R)-4-hydroxy-2-(((S)-1-(4-(4-methylthiazol-5-yl)phenyl)ethyl)carbamoyl)pyrrolidin-1-yl)-3,3-dimethyl-1-oxobutan-2-yl)octanediamide]", "values": [
      {"measurement": "PROTAC degradation immunoblot in PC3 cells, with VH298, MG-132, MLN4924, cis-epi", "setting": "PIM1 [2]", "value": 0.75, "unit": "µM"}
    ]},
    {"smiles": "Cc1ncsc1-c1ccc([C@H](C)NC(=O)[C@@H]2C[C@@H](O)CN2C(=O)[C@@H](NC(=O)CCOCCOCCN2CCC(CNc3ccc4ncc(-c5cccc(OC(F)(F)F)c5)n4n3)CC2)C(C)(C)C)cc1", "note": "[SGI-1776-VHL-01, (2S,4R)-1-((S)-3,3-dimethyl-2-(3-(2-(2-(4-(((3-(3-(trifluoromethoxy)phenyl)imidazo[1,2-b]pyridazin-6-yl)amino)methyl)piperidin-1-yl)ethoxy)ethoxy)propanamido)butanoyl)-4-hydroxy-N-((S)-1-(4-(4-methylthiazol-5-yl)phenyl)ethyl)pyrrolidine-2-carboxamide]", "values": [
      {"measurement": "PROTAC degradation immunoblot in PC3-dox-PIM1 cells (hook effect seen)", "setting": "PIM1 [3]", "value": 0.75, "unit": "µM"}
    ]},
    {"smiles": "Cc1ncsc1-c1ccc([C@H](C)NC(=O)[C@@H]2C[C@@H](O)CN2C(=O)[C@@H](NC(=O)CCCCCCC(=O)N2CCC(CNc3ccc4ncc(-c5cccc(OC(F)(F)F)c5)n4n3)CC2)C(C)(C)C)cc1", "note": "[SGI-1776-VHL-02, (2S,4R)-1-((S)-3,3-dimethyl-2-(8-oxo-8-(4-(((3-(3-(trifluoromethoxy)phenyl)imidazo[1,2-b]pyridazin-6-yl)amino)methyl)piperidin-1-yl)octanamido)butanoyl)-4-hydroxy-N-((S)-1-(4-(4-methylthiazol-5-yl)phenyl)ethyl)pyrrolidine-2-carboxamide]", "values": [
      {"measurement": "PROTAC degradation immunoblot in PC3 cells", "setting": "PIM2", "value": 3.75, "unit": "µM"},
      {"measurement": "PROTAC degradation immunoblot in PC3 cells, with VH298, MG-132, MLN4924, cis-epi", "setting": "PIM1 [2]", "value": 0.75, "unit": "µM"},
      {"measurement": "PROTAC degradation immunoblot in PC3 cells", "setting": "PIM3", "value": 1.5, "unit": "µM"}
    ]}
  ]
}
